In patent publication US20050075398A1, “Neuroprotectin D1 protects against cellular apoptosis, stroke damage, alzheimer's disease and retinal diseases” (priority 2003, published 2005):
Entries after “also recorded” stand apart in the source; their conditions may differ.

Experiments:
[1] = system: IL-1β-induced NF-κB activation; assay: EMSA of NF-κB in IL-1β-exposed human neural progenitor cells; assay type: cell-based; details: HN progenitor cells, IL-1β 10 ng/ml 3 h
Protocol: Human neural (HN) progenitor cells in primary culture. HN cells were grown to ˜70% confluence (˜50,000 cells per 3.5-cm diameter well) in 6-well COSTAR plates at 37° C., 5% CO2/20% O2/75% N2 in humidified air at 1 atm (normoxic conditions) in NPMM medium (Clonetics CC-4241) supplemented with hFGF, NSF-1, hEGF, GA-1000, as described by the manufacturer (Clonetics, Walkersville, Md.). HN cells tested negative for HIV-1, hepatitis B and C, mycoplasma, bacteria, yeast, and fungi, and positive for the glial and neuronal markers GFAP, MAP2, and β-tubulin III (Clonetics). […]
Electrophoretic mobility-shift assay (EMSA) of human AP1, HIF-1α, NF-κBp50/p65, and STAT-1α. Nuclear protein extracts (NPXTs) were prepared from one to three 3.5 cm-diameter wells of HN cells and quantitated. NPXTs (5 μg) derived from HN cells were incubated with[γ-^32P]-ATP (˜3000 Ci/mmol)-end-labeled AP1, HIF-1α, NF-κκBp50/p65, or STAT-1α consensus and mutant oligonucleotides in 5-μl volumes, reacted for 30 min on ice, analyzed on 5% or 10% acrylamide/90 mM Tris-borate pH 8.4, 1 mM EDTA (TBE) gels, dried onto 2-mm Whatman filter paper at 80° C. for 2 h, and phosphorimaged using a Typhoon Variable Mode Imager (Amersham Pharmacia Biotech, Piscataway, N.J. ).

[2] = system: Bcl-2 gene expression; assay: HGU133 GeneChip DNA array in HN cells: Bcl-2; assay type: cell-based, human; details: Aβ42 25 μM, DHA 50 nM or NPD1 50 nM, 18 h, nsc = no significant change
[3] = system: Bcl-2 protein; assay: Western analysis of Bcl-2 in HN cells; assay type: cell-based, human; details: 50 nM, p<0.05
Protocol: Western Analysis. Total protein was extracted, and 25 μg of protein was analyzed by Western blots using human Bcl-2, Bfl-1 (A1) and actin antibodies. […] Human specific anti-Bfl-1(A1)[Cat. No. sc-8351] was obtained from Santa Cruz Biotechnology (Santa Cruz, Calif.). For Western analysis, signal-intensity data were gathered by phosphorimaging onto molecular imaging screens (FUJIFILM) for 3-36 h using a Typhoon Molecular Imager system (Amersham Biosciences) as described in Bazan and Lukiw, 2002.
To confirm the above changes in Bcl-2 and Bfl-1(A1), Western analysis was performed using anti-Bcl-2, anti-Bfl-1(A1), and anti-actin primary antibodies (B3170 Sigma Life Science, sc-8351 Santa Cruz, and A2103 Sigma, respectively). The results of the Western analysis confirm up-regulation of Bcl-2 and Bfl-1(A1) anti-apoptotic proteins over actin controls in DHA- and NPD1-treated cells.

[4] = system: ARPE-19 cells; assay: Hoechst staining, TNFα/H2O2 oxidative stress-induced apoptosis; assay type: cell-based, human
Protocol: ARPE-19 cell culture and chemicals: ARPE-19 cells (L. M. Hjelmeland, ATCC # CRL-2302) were grown and maintained in DMEM-F12 medium supplemented with 10% FBS and incubated at 37° C. with a constant supply of 5% CO2. ARPE-19 cells are spontaneously transformed human retinal pigment epithelial cells that conserve cellular biological and functional properties. All chemicals were purchased from Sigma Chemical Co. (St. Louis, Mo.) unless otherwise indicated.
Hoechst staining: ARPE-19 cells were loaded with 2 μM Hoechst dissolved in a Locke's solution (Promega, Madison, Wis.) and incubated one h at 37° C. before imaging. Cells were then washed once with PBS and viewed using a Nikon DIAPHOT 200 microscope under UV fluorescence. Images were recorded by a Hamamatsu Color Chilled 3CCD camera and Photoshop 5.0 software, as described in Mukherjee, P. K., DeCoster, M. A., Campbell, F. Z., Davis, R. J. & Bazan, N. G. (1999) J. Biol. Chem. 274:6493-6498.
Several experimental conditions that result in reproducible oxidative-stress-induced apoptosis in ARPE-19 cells were tested. One condition chosen was the combination of TNFα with H2O2, both in relatively low concentrations. Typically 10 ng/ml of TNFα and 400-800 μM H2O2 led to marked increase in Hoechst-positive cells (Data not shown). Neither TNFα nor H2O2 alone triggered a significant effect under these conditions. (Data not shown).
Serum starvation made ARPE-19 cells more sensitive to oxidative stress-triggered apoptosis induced by TNFα/H2O2. Cells were grown in culture for 72 h in the presence of BSA (3.35 μM) with or without DHA (6.7 μM). Endogenous NPD1 formation was enhanced by BSA-DHA (FIG. 12A).
In the next experiment, confluent cells were starved for 8 h, then TNFα/H2O2 was added and incubated for 14 h before staining with Hoechst reagent. NPD1 (50 nM) was added at the time of adding TNFα/H2O2. […] When the TNFα concentration (10 ng/ml) was maintained and H2O2 concentration was decreased from 800 to 400 μM, fewer Hoechst-positive cells were seen. […] (Data not shown).

[5] = system: caspase-3; assay: Caspase-3 cleavage analysis by Western blot (PARP); assay type: cell-based, human; details: NPD1 50 nM added with TNFα/H2O2, 6-8 h; TNFα/H2O2 alone 80.8%
Protocol: Caspase-3 cleavage analysis: Caspase-3 cleavage was evaluated by Western-blot analysis after using PARP as substrate. Briefly, 20 μg equivalent of each cell extract was electrophoresed on an 8-16% gel (Promega, Madison, Wis.) for 2 h at 125 volts. The proteins were transferred onto nitrocellulose membranes as before, and probed with PARP antibody (Santa Cruz Biotechnology, Santa Cruz, Calif.). The degradation of PARP was evaluated using ECL kit.
Effector caspase-3, downstream of pro- and anti-apoptotic proteins, is activated as a consequence of mitochondrial cytochrome c release into the cytoplasm and activation of the apoptosome. ARPE-19 cells were serum-starved for 1 h prior to a 6- to 8-h treatment with TNF-α (10 ng)+H2O2 (either 400 or 800 μM as indicated) in the presence or absence of NPD1 (50 nM). In FIG. 15A, caspase-3 cleavage was detected by Western-blot analysis using PARP (Santa Cruz Biotech.) as antibody. […] In ARPE-19 cells, caspase-3-induced cleavage using endogenous substrate occurred when TNFα/H2O2-triggered oxidative stress was present, as indicated by increased PARP accumulation (an 80.8% increase compared to the control; FIG. 15A).

Compound: CC/C=C\C[C@H](O)\C=C/C=C/C=C/[C@H](O)C/C=C\C/C=C\CCC(=O)O [NPD1, 10,17S-docosatriene]
- concentration at which inhibitory effect on NF-κB is seen (as low as) [1]: 0.3 nM
- effect on IL-1β-induced NF-κB activation ([1]; concentration-dependent): down-regulated
- Bcl-2 gene expression, fold change over untreated controls [2]: +3.3 fold
- Bcl-2 protein increase over controls, normalized with actin [3]: 2.3 fold
- inhibition of oxidative stress (TNFα/H2O2)-induced Hoechst-positive cells / apoptosis ([4]; 50 nM added with TNFα 10 ng/ml plus H2O2 (400-800 μM), 14 h): inhibition; also recorded: inhibited apoptosis
- inhibition of oxidative stress caused by the lower H2O2 concentration ([4]; 50 nM, TNFα 10 ng/ml plus H2O2 400 μM): almost completely inhibited
- PARP accumulation (caspase-3 activation), increase compared to the control [5]: 18.3%
